US7186886B2, “Aliphatic acyl transferase genes” (International Flower Developments Proprietary Limited, priority 2000, dated 2007)

How the values were obtained:
[1] = Colour of anthocyanin solutions in McIlvaine buffer evaluated with Colour charts (Royal Horticulture Society); assay type: physicochemical; conditions: for Number in Colour chart at pH 5.3: McIlvaine buffer pH 5.3; for Number in Colour chart at pH 5.3 / Number in Colour chart at pH 5.6 / Number in Colour chart at pH 6.0: greater number = bluer, A = bluest within a number; for Number in Colour chart at pH 5.6: McIlvaine buffer pH 5.6; for Number in Colour chart at pH 6.0: McIlvaine buffer pH 6.0
Protocol: Delphinidin 3,5-diglucoside, awobanin (delphinidin 3-(coumaroyl) glucoside-5-glucoside), malonyl-awobanin (delphinidin 3-(coumaroyl)glucoside-5-(malonyl) glucoside) were dissolved in McIlvaine buffer (pH 5.3, pH 5.6, pH 6.0) in concentrations of 0.1 mM, 0.3 mM, 0.5 mM, respectively, and colours of the solutions were evaluated using Colour charts (Royal Horticulture Society). Delphinidin 3,5-diglucoside can be obtained from its 3,5-diacetylglucoside form by removing the acetyl portion in alkaline hydrolysis reaction (Tetrahedron, 48, 4313–4326, 1992). Awobanin can be obtained from malonyl-awobanin by removing its 5-malonyl portion (Tetrahedron Lett. 24, 4863–4866, 1983). Malonyl-awobanin was obtained by extraction from plants using the method as set forth in Tetrahedron Lett. 24, 4863–4866, 1983. The greater the number in the Colour chart, the bluer the colour is. When the number is the same, symbol A represents the bluest colour.

[2] = Malonyl transferase activity of E. coli-expressed gene product, shisonin as substrate, HPLC detection; assay type: biochemical
Protocol: Measurement of activity of malonyl transferase was conducted using reaction solution 100 μl (potassium phosphate of final concentration of 20 mM, pH 7.0, containing shisonin 10 μg, malonyl CoA 10 μg, and an enzyme sample to be measured, dissolved in 0.01% trifluoro acetic acid). After reaction was carried out at 30° C. for 20 minutes, the reaction was terminated by adding 200 μl of 0.05% TFA aqueous solution cooled on ice. Quantification of shisonin and malonyl-shisonin was conducted by reverse phase high performance liquid chromatography (DYNAMAX HPLC system) using a Shodex Asahipak ODP-50 4E column, and using a linear concentration gradient with 0.5% TFA solution as the solution and 0.5% TFA, 50% acetonitrile aqueous solution as the solution, such that concentration of the B solution was 45%, 45%, 55%, 100%, 100%, 45%, and 45%, at time 0, 3, 17, 18, 23, 24, and 30 minutes, respectively, after the start of separation, at a flow rate of 0.7 ml/min, using 50 μl of reaction solution, monitoring absorption at 520 nm. […]
Enzyme activity was measured using a supernatant (soluble fraction) obtained after centrifuging. […]
As in Example 7, using a plasmid constructed such that the PfMaT1 gene obtained in Example 9 can be expressed as a fusion protein fused with LacZ protein, the PfMaT1 gene was expressed in Escherichia coli as in Example 7, and enzyme activity was measured. […]

Molecule	Number in Colour chart at pH 5.3 ([1]; 0.1 mM) [C]	Number in Colour chart at pH 5.6 ([1]; 0.1 mM)	Number in Colour chart at pH 6.0 ([1]; 0.1 mM) [B]	Number in Colour chart at pH 5.3 ([1]; 0.3 mM)	Number in Colour chart at pH 5.6 ([1]; 0.3 mM)	Number in Colour chart at pH 6.0 ([1]; 0.3 mM)	Number in Colour chart at pH 5.3 ([1]; 0.5 mM)	Number in Colour chart at pH 6.0 ([1]; 0.5 mM)	Colour of solution compared among the three anthocyanins ([1]; all concentrations and pH, versus delphinidin 3,5-diglucoside and awobanin)	Number in Colour chart at pH 5.6 ([1]; 0.5 mM) [B]	Acyl transfer to shisonin with other acyl CoA substrates (new HPLC peak) ([2]; acetyl CoA, methylmalonyl CoA, or succinyl CoA in place of malonyl CoA)	Malonyl transferase activity (formation of malonyl-shisonin) ([2]; shisonin and malonyl CoA, 30° C., 20 minutes, pH 7.0, soluble extract of expressing Escherichia coli)
OC[C@H]1O[C@@H](Oc2cc3c(O[C@@H]4O[C@H](CO)[C@@H](O)[C@H](O)[C@H]4O)cc(O)cc3[o+]c2-c2cc(O)c(O)c(O)c2)[C@H](O)[C@@H](O)[C@@H]1O [Delphinidin 3,5-diglucoside]	84	84C		85A	86D	88C	86D	88B/C		90		
SsMaT1: Salvia splendens malonyl transferase gene product (SEQ ID NO: 23), expressed in E. coli from pQE-30Xa-SsMaT1 (protein, listed as Salvia splendens, possible His tag from pQE-30Xa) TTTTILETCHIPPPPAANDLSIPLSFFDIKWLHYHPVRRLLFYHHPSSKSQFLHTIVPHLKQSLSLALTHYLPVAGNLLYPSNTEKFPQLRYAAGDSVPVTIAESNSDFESLTGNHTRDADQFYDLLPPIPPIEEESDWKLINIFAVQITLFPGEGICIGFSNHHCLGDASSIVGFISAWGEINGIGGYEGFLSNHSDSLSLPIFDRSFINDPNKIDAIFWKVLSNMPLKTASFPLPTNSVSSTFLLRSSDIEKLKTATKSPASSFVAAAAFVWSCMVKSGDKSDENAPELFIMPADASGSVDPPMPENYFGNCIVSSVAQVERGKLAAEDGFAVAAEAIGGEIEGKLKNSDEILSGAENWMSDMFKCFGMSVLGVSGSPKFDLLKADFGWGKASKLEVLSIDGENHSMSLCSSSDFNGGLEVGLSLPSESMAAFEEVFSASMMAASGPASRSPALVEPL											a new peak in addition to shisonin was observed	malonyl-shisonin was produced

Now from value to molecule, other results behind:

Number in Colour chart at pH 5.3 ([1]; 0.1 mM) [C]	Number in Colour chart at pH 5.6 ([1]; 0.1 mM)	Number in Colour chart at pH 6.0 ([1]; 0.1 mM) [B]	Number in Colour chart at pH 5.3 ([1]; 0.3 mM)	Number in Colour chart at pH 5.6 ([1]; 0.3 mM)	Number in Colour chart at pH 6.0 ([1]; 0.3 mM)	Number in Colour chart at pH 5.3 ([1]; 0.5 mM)	Number in Colour chart at pH 6.0 ([1]; 0.5 mM)	Colour of solution compared among the three anthocyanins ([1]; all concentrations and pH, versus delphinidin 3,5-diglucoside and awobanin)	Number in Colour chart at pH 5.6 ([1]; 0.5 mM) [B]	Molecule	Acyl transfer to shisonin with other acyl CoA substrates (new HPLC peak) ([2]; acetyl CoA, methylmalonyl CoA, or succinyl CoA in place of malonyl CoA)	Malonyl transferase activity (formation of malonyl-shisonin) ([2]; shisonin and malonyl CoA, 30° C., 20 minutes, pH 7.0, soluble extract of expressing Escherichia coli)
85	91B	91	92A	93B	96C	93B	96A	the bluest		O=C(O)CC(=O)OC[C@H]1O[C@@H](Oc2cc(O)cc3[o+]c(-c4cc(O)c(O)c(O)c4)c(O[C@@H]4O[C@H](COC(=O)/C=C/c5ccc(O)cc5)[C@@H](O)[C@H](O)[C@H]4O)cc23)[C@H](O)[C@@H](O)[C@@H]1O [Malonyl-awobanin, delphinidin 3-(coumaroyl)glucoside-5-(malonyl) glucoside]		
85	85A	91	86D		91A					O=C(/C=C/c1ccc(O)cc1)OC[C@H]1O[C@@H](Oc2cc3c(O[C@@H]4O[C@H](CO)[C@@H](O)[C@H](O)[C@H]4O)cc(O)cc3[o+]c2-c2cc(O)c(O)c(O)c2)[C@H](O)[C@@H](O)[C@@H]1O [Awobanin, delphinidin 3-(coumaroyl) glucoside-5-glucoside]		
